Test results reported in ChEMBL document CHEMBL3853350 (ACS Med Chem Lett, 2016).

What was measured:
[1] = target: Phosphatidylinositol 4,5-bisphosphate 3-kinase catalytic subunit gamma isoform (Homo sapiens, UniProt P48736); experiment: biochemical
Description: Inhibition of human recombinant full length N-terminal His-tagged PI3Kgamma expressed in Sf9 insect cells using diC8PIP2 as substrate incubated for 15 mins followed by substrate addition measured after 2 hr by ADP-Glo luminescence assay

[2] = target: PI3-kinase p110-delta/p85-alpha (Homo sapiens, UniProt O00329); experiment: Inhibition of human recombinant full length N-terminal GST-tagged PI3K p110delta/p85alpha coexpressed in baculovirus infected Sf9 insect cells using diC8PIP2 as substrate incubated for 15 mins followed by substrate addition measured after 2 hr by ADP-Glo luminescence assay
[3] = Half life in mouse hepatocytes at 1 uM by LC/MS analysis; type: ADME, cell-based, Hepatocyte

PI3-kinase p110-delta/p85-alpha, sequence (P27986 whole entry): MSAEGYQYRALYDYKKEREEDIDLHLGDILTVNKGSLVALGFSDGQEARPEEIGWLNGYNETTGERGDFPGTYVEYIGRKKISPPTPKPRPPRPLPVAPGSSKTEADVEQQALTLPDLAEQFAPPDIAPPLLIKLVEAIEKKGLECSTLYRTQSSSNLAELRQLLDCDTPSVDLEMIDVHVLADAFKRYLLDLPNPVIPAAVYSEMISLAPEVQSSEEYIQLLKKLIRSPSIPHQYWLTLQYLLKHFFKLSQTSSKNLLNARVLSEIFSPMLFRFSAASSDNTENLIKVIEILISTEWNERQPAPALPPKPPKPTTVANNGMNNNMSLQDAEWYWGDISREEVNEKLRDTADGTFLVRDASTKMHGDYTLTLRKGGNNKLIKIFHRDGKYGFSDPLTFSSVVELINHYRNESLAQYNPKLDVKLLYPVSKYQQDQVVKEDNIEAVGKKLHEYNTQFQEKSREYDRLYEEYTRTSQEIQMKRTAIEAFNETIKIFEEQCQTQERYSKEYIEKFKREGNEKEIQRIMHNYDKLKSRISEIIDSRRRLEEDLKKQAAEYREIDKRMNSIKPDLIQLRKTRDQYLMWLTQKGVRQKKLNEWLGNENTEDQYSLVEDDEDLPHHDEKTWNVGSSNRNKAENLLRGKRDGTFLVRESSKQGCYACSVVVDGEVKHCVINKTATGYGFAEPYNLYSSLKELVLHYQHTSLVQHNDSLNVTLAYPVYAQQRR
PI3-kinase p110-delta/p85-alpha, sequence (O00329 whole entry): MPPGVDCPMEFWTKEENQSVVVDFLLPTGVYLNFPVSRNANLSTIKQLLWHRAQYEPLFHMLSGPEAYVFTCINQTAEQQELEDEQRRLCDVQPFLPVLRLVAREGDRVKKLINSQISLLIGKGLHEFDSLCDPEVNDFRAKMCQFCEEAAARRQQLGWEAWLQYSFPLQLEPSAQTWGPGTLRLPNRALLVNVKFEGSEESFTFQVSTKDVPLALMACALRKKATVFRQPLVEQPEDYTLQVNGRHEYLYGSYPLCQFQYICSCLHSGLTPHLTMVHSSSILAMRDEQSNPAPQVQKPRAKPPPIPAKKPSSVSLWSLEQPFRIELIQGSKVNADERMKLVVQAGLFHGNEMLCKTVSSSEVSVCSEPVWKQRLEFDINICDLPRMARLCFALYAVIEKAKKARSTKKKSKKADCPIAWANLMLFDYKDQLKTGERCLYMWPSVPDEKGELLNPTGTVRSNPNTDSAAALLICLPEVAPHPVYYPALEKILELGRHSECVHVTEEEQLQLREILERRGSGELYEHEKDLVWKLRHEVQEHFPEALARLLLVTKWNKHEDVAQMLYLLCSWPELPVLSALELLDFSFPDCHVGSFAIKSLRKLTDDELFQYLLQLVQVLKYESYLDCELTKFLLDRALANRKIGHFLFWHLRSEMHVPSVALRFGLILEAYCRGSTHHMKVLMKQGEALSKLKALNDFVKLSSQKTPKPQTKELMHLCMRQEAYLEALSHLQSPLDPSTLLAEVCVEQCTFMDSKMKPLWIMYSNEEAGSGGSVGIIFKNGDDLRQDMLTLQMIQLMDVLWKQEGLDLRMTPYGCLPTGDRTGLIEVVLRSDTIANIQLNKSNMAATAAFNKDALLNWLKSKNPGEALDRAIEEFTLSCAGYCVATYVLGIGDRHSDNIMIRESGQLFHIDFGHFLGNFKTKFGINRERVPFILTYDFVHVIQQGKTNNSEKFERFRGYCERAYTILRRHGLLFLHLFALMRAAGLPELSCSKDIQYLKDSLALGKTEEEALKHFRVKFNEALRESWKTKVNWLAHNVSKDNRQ
Phosphatidylinositol 4,5-bisphosphate 3-kinase catalytic subunit gamma isoform, sequence (P48736 whole entry, canonical isoform): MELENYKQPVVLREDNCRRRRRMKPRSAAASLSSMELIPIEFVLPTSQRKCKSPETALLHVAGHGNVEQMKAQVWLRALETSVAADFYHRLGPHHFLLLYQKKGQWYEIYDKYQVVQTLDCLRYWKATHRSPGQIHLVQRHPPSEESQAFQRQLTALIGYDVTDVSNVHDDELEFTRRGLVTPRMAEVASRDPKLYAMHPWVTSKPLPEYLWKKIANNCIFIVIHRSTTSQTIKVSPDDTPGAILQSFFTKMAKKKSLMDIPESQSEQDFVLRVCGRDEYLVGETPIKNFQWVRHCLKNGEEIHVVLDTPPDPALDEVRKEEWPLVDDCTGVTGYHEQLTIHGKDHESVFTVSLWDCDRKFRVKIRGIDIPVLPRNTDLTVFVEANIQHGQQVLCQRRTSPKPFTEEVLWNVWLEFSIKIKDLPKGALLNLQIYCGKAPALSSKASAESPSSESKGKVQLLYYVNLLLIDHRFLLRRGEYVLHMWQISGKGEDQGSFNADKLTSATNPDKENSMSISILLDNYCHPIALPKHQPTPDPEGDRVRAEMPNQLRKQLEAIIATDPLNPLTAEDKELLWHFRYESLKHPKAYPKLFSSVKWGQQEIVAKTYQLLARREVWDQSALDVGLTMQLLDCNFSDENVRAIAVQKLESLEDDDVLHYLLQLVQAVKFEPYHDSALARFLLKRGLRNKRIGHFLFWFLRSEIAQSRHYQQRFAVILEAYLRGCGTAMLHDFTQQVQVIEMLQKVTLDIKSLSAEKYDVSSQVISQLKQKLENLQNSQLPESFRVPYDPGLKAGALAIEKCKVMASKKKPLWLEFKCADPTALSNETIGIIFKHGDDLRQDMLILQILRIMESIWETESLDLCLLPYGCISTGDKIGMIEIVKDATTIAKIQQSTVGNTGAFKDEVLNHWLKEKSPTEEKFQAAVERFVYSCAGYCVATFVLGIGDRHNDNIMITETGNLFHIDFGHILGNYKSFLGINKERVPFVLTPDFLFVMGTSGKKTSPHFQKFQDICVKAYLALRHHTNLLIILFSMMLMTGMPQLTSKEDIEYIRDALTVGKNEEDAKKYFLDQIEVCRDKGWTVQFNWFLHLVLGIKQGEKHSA

Row | SMILES | IC50 [1] [nM] | IC50 [2] [nM] | half-life at 1 µM [3] [h]
1 | Nc1nn2cccnc2c1C(=O)NCc1cc2cccc(Cl)c2c(=O)n1-c1ccccc1 | > 7000 | > 10000 | –
2 | C[C@H](NC(=O)c1c(N)nn2cccnc12)c1cc2cccc(C#Cc3ccccn3)c2c(=O)n1-c1ccccc1 | 170 | > 9600 | 1.2
3 | C[C@H](NC(=O)c1c(N)nn2cccnc12)c1cc2cccc(C#Cc3nccs3)c2c(=O)n1-c1ccccc1 | 360 | > 10000 | 0.45
4 | C[C@H](NC(=O)c1c(N)nn2cccnc12)c1cc2cccc(C#Cc3ccn(C)n3)c2c(=O)n1-c1ccccc1 | 100 | > 9000 | 4.18
5 | COc1cccc2cc([C@H](C)NC(=O)c3c(N)nn4cccnc34)n(-c3ccccc3)c(=O)c12 | 1000 | > 9000 | –
6 | C[C@H](NC(=O)c1c(N)nn2cccnc12)c1cc2cccc(C#Cc3cncs3)c2c(=O)n1-c1ccccc1 | 110 | > 8000 | 0.717
7 | C/C=C/c1cccc2cc([C@H](C)NC(=O)c3c(N)nn4cccnc34)n(-c3ccccc3)c(=O)c12 | 330 | > 10000 | –
8 | CNc1cccc2cc([C@H](C)NC(=O)c3c(N)nn4cccnc34)n(-c3ccccc3)c(=O)c12 | 1100 | > 10000 | –
9 | C[C@H](NC(=O)c1c(N)nn2cccnc12)c1cc2cccc(C#Cc3ccncc3)c2c(=O)n1-c1ccccc1 | 350 | > 9000 | 0.85
10 | C[C@H](NC(=O)c1c(N)nn2cccnc12)c1cc2cccc(N(C)C)c2c(=O)n1-c1ccccc1 | 1100 | > 10000 | –
11 | C[C@H](NC(=O)c1c(N)ncc2ccccc12)c1cc2cccc(Cl)c2c(=O)n1-c1ccccc1 | > 10000 | > 10000 | –

Further lines, results first:

Row | IC50 [1] [nM] | IC50 [2] [nM] | half-life at 1 µM [3] [h] | SMILES
12 | 400 | 800 | – | C[C@H](NC(=O)c1cnn2cccnc12)c1cc2cccc(Cl)c2c(=O)n1-c1ccccc1
13 | 60 | 320 | – | C[C@H](NC(=O)c1c(N)ncc2cccnc12)c1cc2cccc(Cl)c2c(=O)n1-c1ccccc1
14 | – | 2600 | – | C[C@H](NC(=O)c1c(N)nn2ccccc12)c1cc2cccc(Cl)c2c(=O)n1-c1ccccc1
15 | 75 | 4800 | 4.5 | C[C@H](NC(=O)c1c(N)nn2cccnc12)c1cc2cccc(C#Cc3cscn3)c2c(=O)n1-c1ccccc1
16 | 110 | > 6000 | 1.7 | C[C@H](NC(=O)c1c(N)nn2cccnc12)c1cc2cccc(C#Cc3cccnc3)c2c(=O)n1-c1ccccc1
17 | 25 | > 1000 | – | CC#Cc1cccc2cc([C@H](C)NC(=O)c3c(N)nn4cccnc34)n(-c3ccccc3)c(=O)c12
18 | 240 | 3100 | – | C[C@H](NC(=O)c1c(N)nn2cccnc12)c1cc2cccc(C#N)c2c(=O)n1-c1ccccc1
19 | 110 | 2600 | – | Cc1cccc2cc([C@H](C)NC(=O)c3c(N)nn4cccnc34)n(-c3ccccc3)c(=O)c12
20 | 150 | 600 | – | CC[C@H](NC(=O)c1c(N)nn2cccnc12)c1cc2cccc(Cl)c2c(=O)n1-c1ccccc1
21 | – | 400 | – | C[C@H](NC(=O)c1c(N)nn2cccnc12)c1cc2cccc(Cl)c2c(=O)n1-c1ccccc1
22 | 280 | 140 | – | C[C@H](NC(=O)c1c(N)nn2cccnc12)c1cc2cccc(C#Cc3ccccc3)c2c(=O)n1-c1ccccc1
23 | 14 | 700 | – | C#Cc1cccc2cc([C@H](C)NC(=O)c3c(N)nn4cccnc34)n(-c3ccccc3)c(=O)c12
24 | 50 | 530 | – | C[C@H](NC(=O)c1c(N)nn2cccnc12)c1cc2cccc(F)c2c(=O)n1-c1ccccc1
25 | 1000 | 900 | – | C[C@H](NC(=O)c1cncc2cccnc12)c1cc2cccc(Cl)c2c(=O)n1-c1ccccc1
